Measured values: US8957064B2, “Fused pyrimidines” (Bayer Intellectual Property GmbH, priority 2009, dated 2015)

Experiments:
[1] = biological target: His-tagged human recombinant kinase full-length Akt1 (Homo sapiens (Human), UniProt P31749); assay: Akt1 kinase assay (Akt1 TR-FRET assay, Biological Assay 1.0); format: biochemical; settings: 10 μM ATP, 1 μM biotinylated peptide substrate, 60 min at 22° C.
Procedure, shortened: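 Insect-cell-expressed full-length His-Akt1 (~0.05 ng/μl) preincubated 15 min with compound, then reacted 60 min at 22 °C with 10 μM ATP and 1 μM biotinylated peptide (final), pH 7.5. Phosphopeptide detected by HTRF (665/620 nm ratio). Data normalised to no-inhibitor and no-enzyme controls.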

[2] = biological target: His-tagged human recombinant kinase full-length Akt2 activated by PDK1 (Homo sapiens (Human), UniProt P31751); assay: Akt2 kinase assay (Akt2 TR-FRET assay, Biological Assay 2.0); format: biochemical; settings: 10 μM ATP, 1 μM biotinylated peptide substrate, 60 min at 22° C.
His-tagged human recombinant kinase full-length Akt2 activated by PDK1, sequence (P31751 whole entry): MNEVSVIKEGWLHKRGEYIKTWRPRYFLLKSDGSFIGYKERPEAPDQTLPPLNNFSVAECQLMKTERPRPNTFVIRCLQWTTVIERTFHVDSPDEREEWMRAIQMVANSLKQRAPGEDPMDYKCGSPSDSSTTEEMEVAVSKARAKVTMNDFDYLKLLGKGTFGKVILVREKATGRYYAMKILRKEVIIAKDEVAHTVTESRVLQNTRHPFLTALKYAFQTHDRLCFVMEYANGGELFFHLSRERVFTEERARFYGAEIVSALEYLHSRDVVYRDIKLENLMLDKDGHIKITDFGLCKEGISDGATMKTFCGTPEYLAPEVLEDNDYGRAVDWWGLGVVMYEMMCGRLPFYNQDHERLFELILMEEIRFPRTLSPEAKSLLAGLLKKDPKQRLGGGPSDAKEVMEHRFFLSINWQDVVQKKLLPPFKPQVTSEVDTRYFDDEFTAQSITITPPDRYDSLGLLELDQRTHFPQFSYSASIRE
Procedure, shortened: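 Compound was pre-incubated with enzyme (~0.2 ng/µl final) for 15 min at 22 °C in Tris pH 7.5, 5 mM MgCl2, then reacted 60 min with 10 µM ATP and 1 µM biotinylated peptide. Phosphopeptide was detected by TR-FRET (665/622 nm ratio). Data were normalised to no-inhibitor (0%) and no-enzyme (100%) controls.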

His-tagged human recombinant kinase full-length Akt1, sequence (P31749 whole entry): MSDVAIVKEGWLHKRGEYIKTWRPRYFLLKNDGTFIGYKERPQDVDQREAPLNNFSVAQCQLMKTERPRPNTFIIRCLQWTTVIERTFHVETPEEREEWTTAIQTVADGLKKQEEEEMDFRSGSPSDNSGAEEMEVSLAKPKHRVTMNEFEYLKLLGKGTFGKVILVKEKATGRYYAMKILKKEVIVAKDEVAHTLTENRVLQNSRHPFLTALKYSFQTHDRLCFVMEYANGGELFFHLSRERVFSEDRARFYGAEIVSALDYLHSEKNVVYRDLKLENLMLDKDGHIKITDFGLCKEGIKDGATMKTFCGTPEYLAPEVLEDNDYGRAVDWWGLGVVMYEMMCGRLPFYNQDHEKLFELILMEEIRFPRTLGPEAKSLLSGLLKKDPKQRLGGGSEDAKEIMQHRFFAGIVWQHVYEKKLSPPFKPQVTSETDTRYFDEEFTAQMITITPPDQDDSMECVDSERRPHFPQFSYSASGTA

SMILES	melting point	IC50 [1]	IC50 [2]
Cc1nc2nc(-c3ccc(CN4CC(c5n[nH]c(-c6ccccn6)n5)C4)cc3)c(-c3ccccc3)c(NC(C)C)n2n1 [Example 45.2, isopropyl-(2-methyl-6-phenyl-5-{4-[3-(5-pyridin-2-yl-1H-[1,2,4]triazol-3-yl)-azetidin-1-ylmethyl]-phenyl}-[1,2,4]triazolo[1,5-a]pyrimidin-7-yl)-amine]	176.8 °C	–	–
CC(C)Nc1c(-c2ccccc2)c(-c2ccc(CN3CC(c4n[nH]c(-c5ccccn5)n4)C3)cc2)nc2nc(-c3ccccn3)nn12 [Example 68.0]	–	24 nM	88 nM
Cc1cccc(-c2nc(C3CN(Cc4ccc(-c5nc6nc(-c7ccccn7)nn6c(NC(C)C)c5-c5ccccc5)cc4)C3)n[nH]2)n1 [Example 69.0, isopropyl-(6-phenyl-2-pyridine-2-yl-5-{4-[3-[5-(6-methylpyridine-2-yl)-1H-[1,2,4]triazole-3-yl)-azetidine-1-ylmethyl]-phenyl}-[1,2,4]triazolo[1,5-a]pyrimidin-7-yl)-amine]	–	14 nM	16 nM
c1ccc(-c2cn3nc(C4CC4)nc3nc2-c2ccc(CN3CC(c4n[nH]c(-c5ccccn5)n4)C3)cc2)cc1 [Example 70.0]	–	7 nM	5 nM
CSc1nc2nc(-c3ccc(CN4CC(c5n[nH]c(-c6cccc(C)n6)n5)C4)cc3)c(-c3ccccc3)cn2n1 [Example 71.0, 5-(4-{3-[5-(6-methyl-pyridin-2-yl)-1H-[1,2,4]triazol-3-yl]-azetidin-1-ylmethyl}-phenyl)-2-methylsulfanyl-6-phenyl-[1,2,4]triazolo[1,5-a]pyrimidine]	–	5 nM	4 nM
CSc1nc2nc(-c3ccc(CN4CCC(c5n[nH]c(-c6ncccn6)n5)CC4)cc3)c(-c3ccccc3)cn2n1 [Example 72.2, 2-methylsulfanyl-6-phenyl-5-{4-[4-(5-pyrimidin-2-yl-1H-[1,2,4]triazol-3-yl)-piperidin-1-ylmethyl]-phenyl}-[1,2,4]triazolo[1,5-a]pyrimidine]	–	77 nM	222 nM
CSc1nc2nc(-c3ccc(CN4CCC(c5n[nH]c(-c6cnccn6)n5)CC4)cc3)c(-c3ccccc3)cn2n1 [Example 72.3, 2-methylsulfanyl-6-phenyl-5-{4-[4-(5-pyrazin-2-yl-1H-[1,2,4]triazol-3-yl)-piperidin-1-ylmethyl]-phenyl}-[1,2,4]triazolo[1,5-a]pyrimidine]	–	26 nM	80 nM
COC(=O)c1cn2cc(-c3ccccc3)c(-c3ccc(CN4CC(c5n[nH]c(-c6cccc(C)n6)n5)C4)cc3)nc2n1 [Example 74.0, 7-(4-{3-[5-(6-methylpyridine-2-yl)-1H-[1,2,4]triazole-3-yl]-azetidine-1-ylmethyl}-phenyl)-6-phenyl-imidazo[1,2-a]pyrimidine-2-carboxylic acid methyl ester]	–	12 nM	14 nM
COC(=O)c1cn2cc(-c3ccccc3)c(-c3ccc(CN4CC(c5n[nH]c(-c6ccccn6)n5)C4)cc3)nc2n1 [Example 74.1, 6-phenyl-7-{4-[3-[5-pyridine-2-yl-1H-[1,2,4]triazole-3-yl)azetidine-1-ylmethyl]-phenyl}-imidazo[1,2-a]pyrimidine-2-carboxylic acid methyl ester]	–	10 nM	17 nM
OCc1cn2cc(-c3ccccc3)c(-c3ccc(CN4CC(c5n[nH]c(-c6ccccn6)n5)C4)cc3)nc2n1 [Example 75.0]	–	72 nM	124 nM
Cc1nc2nc(-c3ccc(CN4CCC(c5n[nH]c(-c6ccccn6)n5)CC4)cc3)c(-c3cc(F)ccc3F)cn2n1 [Example 76.0, 6-(2,5-difluorophenyl)-2-methyl-5-{4-[4-(5-pyridine-2-yl-1H-[1,2,4]triazole-3-yl)-piperidine-1-ylmethyl]-phenyl}-[1,2,4]triazolo[1,5-a]pyrimidine]	–	60 nM	154 nM
